Experimental data taken from patent US20120021044A1, “Novel Cationic Lipid, A Preparation Method of the Same and A Delivery System Comprising the Same” (SNU R&DB FOUNDATION, priority 2007, published 2012).

Test system: Bcl2 transcript in SiHa cells
Experiment: Bcl2 transcript expression by RT-PCR after delivery of Bcl2 antisense oligonucleotide into SiHa cells
Format: cell-based, human
Settings: Bcl2 antisense oligonucleotide 100 nM, 24 hours, FIG. 8
Description: On the day prior to the experiment, SiHa cells were seeded on 24-well plates at a density of 8×10^4 cells/well. […] The antisense oligonucleotide to induce the inhibition of expression of the Bcl2 gene (Genbank accession number: […] These materials were slowly pipetted, mixed and allowed to stand at room temperature for 20 min, thus resulting in formation of complexes. The thus-prepared complexes were added to the well plates, followed by cell culture in a CO2 incubator at 37° C. for 24 hours. After 24 hours, total RNA was isolated from the cultured cells using a Trizol reagent (Invitrogen, Carlsbad, Calif., USA) and then reverse-transcribed into cDNA using AccuPower RT PreMix (Bioneer, Daejeon, Korea). […] An expression level of the Bcl2 transcript was assayed by determining quantitative changes of the gene expression through normalization of a band density of the Bcl2-specific PCR product against a band density occurring by amplification of the GAPDH (glyceraldehyde-3-phosphate dehydrogenase) gene.

Substance: antisense oligonucleotide-alone: Bcl2 antisense oligonucleotide 5'-TCT CCC AGC GTG CGC CAT-3' (Bioneer), given without delivery system (antisense TCTCCCAGCGTGCGCCAT; chemistry not given here)
- amount of the Bcl2 transcript (RT-PCR, normalized against GAPDH): no changes in an amount of the Bcl2 transcript
